According to patent US7576215B2, “Quinolines and pharmaceutical compositions thereof” (Wyeth, priority 2003, dated 2009):

melting point: 207 to 208 °C
Compound: O=C(Nc1ccccc1)c1cnc2c(C(F)(F)F)cccc2c1-c1ccccc1 [Example 72, N, 4-DIPHENYL-8-(TRIFLUOROMETHYL)QUINOLINE-3-CARBOXAMIDE]
